Converted amounts (≈) assume the structure as drawn. “And” between values parts separate entries of the source, which are not always exact repeats. Equal values may be shown once. Read-outs that look alike come from different tables or passages of the source.
What was measured:
Assay type in all cases: cell-based
[1] = test system: Plasmodium falciparum clone CDC Indochina III (W-2); experiment: In vitro inhibition of [3H]hypoxanthine uptake, P. falciparum W-2 clone; settings: for IC50: Plasmodium falciparum, read-out: IC50 (W-2)
Protocol: (§1) The in vitro assays were conducted by using a modification of the semiautomated microdilution technique of Desjardins et al.^11 and Chulay et al.^12 Two strains of Plasmodium falciparum clones, from CDC Indochina III (W-2), CDC Sierra Leone I (D-6). […] These solutions were subsequently serially diluted 2-fold with a Biomek 1000® (Beckman, Fullerton, Calif.) over 11 different concentrations. The parasites were exposed to serial dilutions of each compound for 48 h and incubated at 37° C. with 5% O2, 5% CO2, and 90% N2 prior to the addition of [^3H]hypoxanthine. […] Uptake of [^3H]hypoxanthine was measured with a Packard Topcount scintillation counter. […] The values without parentheses indicate culture in blood serum which more closely resemble conditions in a living animal.
(§2) The numbers associated with both W2 and D6 refer to IC50 values and the units are ng/ml.

[2] = test system: Plasmodium falciparum clone Thai WR75-TM9; experiment: In vitro inhibition of [3H]hypoxanthine uptake, P. falciparum WR75-TM9; settings: values without parentheses: blood serum (footnote: blood plasma) replacing Albumax; for IC50: Plasmodium falciparum
Protocol: (§3) The in vitro assays were conducted by using a modification of the semiautomated microdilution technique of Desjardins et al.^11 and Chulay et al.^12 Two strains of Plasmodium falciparum clones, from CDC Indochina III (W-2), CDC Sierra Leone I (D-6). […] They were derived by direct visualization and micromanipulation from patient isolates.^13 Test compounds were initially dissolved in DMSO and diluted 400-fold in RPMI 1640 culture medium supplemented with 25 mM Hepes, 32 mM HaHCO3, and 10% Albumax I® (GIBCO BRL, Grand Island, N.Y.). These solutions were subsequently serially diluted 2-fold with a Biomek 1000® (Beckman, Fullerton, Calif.) over 11 different concentrations. The parasites were exposed to serial dilutions of each compound for 48 h and incubated at 37° C. with 5% O2, 5% CO2, and 90% N2 prior to the addition of [^3H]hypoxanthine. After a further incubation of 18 h, parasite DNA was harvested from each microtiter well using Packard Filtermate 196 Harvester® (Meriden, Conn.) onto glass filters. Uptake of [^3H]hypoxanthine was measured with a Packard Topcount scintillation counter. […] This procedure was repeated with the test compounds initially dissolved in DMSO and diluted 400-fold in RPMI 1640 culture medium supplemented with 25 mM Hepes, 32 mM HaHCO3, and with blood serum replacing the 10% Albumax I® (see Table 1, figures without parentheses). The values without parentheses indicate culture in blood serum which more closely resemble conditions in a living animal.
(§4) Four strains of Plasmodium falciparum clones, from CDC Indochina III (W-2), CDC Sierra Leone I (D-6), Thai WR75-TM9, and Thai TM90C2B were utilized in susceptibility testing and the IC50 results appear in Table 1.

[3] = test system: Plasmodium falciparum clone Thai TM90C2B; experiment: In vitro inhibition of [3H]hypoxanthine uptake, P. falciparum TM90C2B; settings: values without parentheses: blood serum (footnote: blood plasma) replacing Albumax; for IC50: Plasmodium falciparum, TM90C2B
Protocol: as §3, §4

[4] = test system: Plasmodium falciparum clone CDC Sierra Leone I (D-6); experiment: In vitro inhibition of [3H]hypoxanthine uptake, P. falciparum D-6 clone; settings: for IC50: Plasmodium falciparum, read-out: IC50 (D-6)
Protocol: as §1, §2

Plasmodium falciparum = experiment: In vitro antimalarial activity against Plasmodium falciparum (strain not given); settings: judged from the IC50 values of Table 1
Protocol: as §3, §4

[5] = values in parentheses: culture medium with 10% Albumax I
[6] = values without parentheses: blood serum (footnote: blood plasma) replacing Albumax

Row | IC50 [1, 5] [ng/mL] | IC50 [1, 6] [ng/mL] | IC50 [2] [ng/mL] | IC50 [3] [ng/mL] | IC50 [4, 5] [ng/mL] | IC50 [4, 6] [ng/mL] | IC50 (W-2) [1, 6] | IC50 (WR75-TM9) [2] | IC50 (TM90C2B) [3] | IC50 (D-6) [4, 6] | Structure (SMILES) | effectiveness in treating/reducing malaria parasites as shown in Table 1 (Plasmodium falciparum)
1 | 3.93 (≈ 0.0118 µM) | 15.6 (≈ 0.0469 µM) | 30 (≈ 0.0904 µM) | 6.14 (≈ 0.0185 µM) | 7.59 (≈ 0.0228 µM) | 16.3 (≈ 0.0491 µM) | – | – | – | – | C=CCO/N=C/c1ccc2c(c1)C(=O)c1nc3ccncc3c(=O)n1-2 [Example 90] | –
2 | 6.32 (≈ 0.0178 µM) | 23 (≈ 0.0646 µM) | 66.4 (≈ 0.187 µM) | 24.4 (≈ 0.0686 µM) | 7.61 (≈ 0.0214 µM) | 42.6 (≈ 0.12 µM) | – | – | – | – | CN(CCO)c1ccc2c(=O)n3c(nc2c1)C(=O)c1cc(Cl)ccc1-3 [Example 46] | –
3 | 2.8 (≈ 0.00999 µM) | 14.7 (≈ 0.0524 µM) | – | 16.4 (≈ 0.0585 µM) | 4.9 (≈ 0.0175 µM) | 22.1 (≈ 0.0787 µM) | – | – | – | – | Cc1ccc2nc3n(c(=O)c2c1)-c1ccc(F)cc1C3=O [Example 11] | –
4 | 2.73 (≈ 0.00717 µM) | – | 17.3 (≈ 0.0454 µM) | 8.1 (≈ 0.0213 µM) | 4.52 (≈ 0.0119 µM) | – | – | – | – | – | CN1CCN(c2ccc3c(=O)n4c(nc3c2)C(=O)c2cc(Cl)ccc2-4)CC1 [Example 58] | –
5 | 1.5 (≈ 0.0045 µM) | 1.23 (≈ 0.00369 µM) | 1.97 (≈ 0.0059 µM) | 1.16 (≈ 0.00349 µM) | 3.16 (≈ 0.00948 µM) | 0.946 (≈ 0.00284 µM) | – | – | – | – | O=C1c2cc(OC(F)(F)F)ccc2-n2c1nc1ccncc1c2=O [Example 63] | most effective
6 | 1.6 (≈ 0.00563 µM) | 5.27 (≈ 0.0186 µM) | 12 (≈ 0.042 µM) | 9.74 (≈ 0.0343 µM) | 4.9 (≈ 0.0172 µM) | 8.54 (≈ 0.03 µM) | 5.787 ng/mL and 6.539 ng/mL | 16.249 ng/mL and 19.374 ng/mL | 16.914 ng/mL and 11.113 ng/mL | 14.239 ng/mL and 11.005 ng/mL | O=C1c2cc(F)ccc2-n2c1nc1cc(F)ccc1c2=O [Example 12] | –
7 | 0.43 (≈ 0.00152 µM) | 1.28 (≈ 0.00451 µM) | – | 2.3 (≈ 0.00811 µM) | 0.93 (≈ 0.00328 µM) | 0.926 (≈ 0.00326 µM) | – | – | – | – | O=C1c2cc(Cl)ccc2-n2c1nc1ncccc1c2=O [Example 21] | most effective
8 | 1.79 (≈ 0.00443 µM) | – | – | 41.1 (≈ 0.102 µM) | 3.01 (≈ 0.00745 µM) | – | – | – | – | – | COc1cccc2c(=O)n3c(nc12)C(=O)c1cc(I)ccc1-3 [Example 27] | –
9 | 2.1 (≈ 0.00703 µM) | 2.3 (≈ 0.00771 µM) | 14.2 (≈ 0.0476 µM) | 5.48 (≈ 0.0184 µM) | 7.2 (≈ 0.0241 µM) | 11.2 (≈ 0.0376 µM) | – | – | – | – | Cc1ncc2c(=O)n3c(nc2n1)C(=O)c1cc(Cl)ccc1-3 [Example 55] | –
10 | 1.8 (≈ 0.00676 µM) | 5.52 (≈ 0.0207 µM) | – | – | 0.24 (≈ 0.000901 µM) | 9.06 (≈ 0.034 µM) | 4.977 ng/mL (≈ 0.0187 µM) | 9.941 ng/mL (≈ 0.0373 µM) | – | 10.137 ng/mL (≈ 0.0381 µM) | O=C1c2cc(F)ccc2-n2c1nc1ccccc1c2=O [Example 91] | –
11 | 0.84 (≈ 0.00314 µM) | 2.12 (≈ 0.00795 µM) | 9.93 (≈ 0.0372 µM) | 4.21 (≈ 0.0157 µM) | 1.53 (≈ 0.00573 µM) | 4.93 (≈ 0.0184 µM) | – | 8.002 ng/mL (≈ 0.0299 µM) | – | – | O=C1c2cc(F)ccc2-n2c1nc1ncccc1c2=O [Example 17] | –
12 | 3.75 (≈ 0.0112 µM) | 2.85 (≈ 0.00851 µM) | 10.5 (≈ 0.0313 µM) | 4.46 (≈ 0.0133 µM) | 5.4 (≈ 0.0161 µM) | 4.89 (≈ 0.0146 µM) | – | – | – | – | COC(c1ccc2c(c1)C(=O)c1nc3ccncc3c(=O)n1-2)C(C)C (stereo not shown) [Example 73] | –
13 | 3.86 (≈ 0.0114 µM) | – | 5.47 (≈ 0.0161 µM) | 3.73 (≈ 0.011 µM) | 7.86 (≈ 0.0232 µM) | – | – | – | – | – | CN(CCO)c1ccc2c(=O)n3c(nc2c1)C(=O)c1cc(F)ccc1-3 [Example 68] | –
14 | 3.52 (≈ 0.0106 µM) | 59.8 (≈ 0.181 µM) | 127 (≈ 0.384 µM) | 42.5 (≈ 0.128 µM) | 2.19 (≈ 0.00661 µM) | 79.6 (≈ 0.24 µM) | – | – | – | – | O=C1c2cc(C3CCCCC3)ccc2-n2c1nc1ccncc1c2=O [Example 74] | –
15 | 8.69 (≈ 0.0269 µM) | 6.1 (≈ 0.0189 µM) | 24.4 (≈ 0.0754 µM) | 11 (≈ 0.034 µM) | 13.2 (≈ 0.0409 µM) | – | – | – | – | – | COC(OC)c1ccc2c(c1)C(=O)c1nc3ccncc3c(=O)n1-2 [Example 70] | –
16 | 0.86 (≈ 0.00246 µM) | 0.935 (≈ 0.00267 µM) | 3.3 (≈ 0.00941 µM) | 1.76 (≈ 0.00504 µM) | 0.93 (≈ 0.00266 µM) | 1.97 (≈ 0.00561 µM) | – | – | – | – | O=C1c2cc(OC(F)(F)F)ccc2-n2c1nc1cc(F)ccc1c2=O [Example 78] | most effective
17 | 10.6 (≈ 0.0337 µM) | 28.9 (≈ 0.0921 µM) | 82.6 (≈ 0.263 µM) | 62.2 (≈ 0.198 µM) | 20.3 (≈ 0.0647 µM) | 46.5 (≈ 0.148 µM) | – | – | – | – | N#CC(C#N)=c1c2cc(F)ccc2n2c(=O)c3ccccc3nc12 [Example 57] | –
18 | 2.47 (≈ 0.00753 µM) | 17.7 (≈ 0.054 µM) | – | 24 (≈ 0.0732 µM) | 4.37 (≈ 0.0133 µM) | 37.9 (≈ 0.115 µM) | – | – | – | – | O=C1c2cc(Br)ccc2-n2c1nc1cnccc1c2=O [Example 59] | –
19 | 0.91 (≈ 0.00283 µM) | – | – | 7.78 (≈ 0.0242 µM) | 2.01 (≈ 0.00626 µM) | 10.1 (≈ 0.0314 µM) | – | – | – | – | CCOC(=O)c1ccc2c(c1)C(=O)c1nc3ncccc3c(=O)n1-2 [Example 24] | –
20 | 2.3 (≈ 0.00641 µM) | 1.91 (≈ 0.00532 µM) | – | 2.08 (≈ 0.00579 µM) | 3.6 (≈ 0.01 µM) | 3.63 (≈ 0.0101 µM) | – | – | – | – | O=C1c2cc(Cl)ccc2-n2c1nc1cc(SCCO)ccc1c2=O [Example 86] | –
21 | 1.88 (≈ 0.00573 µM) | 1.87 (≈ 0.0057 µM) | 4.2 (≈ 0.0128 µM) | 46 (≈ 0.14 µM) | 3.57 (≈ 0.0109 µM) | 3.57 (≈ 0.0109 µM) | – | – | – | – | O=C1c2cc(Br)ccc2-n2c1nc1ccncc1c2=O [Example 39] | –
22 | 0.728 (≈ 0.00242 µM) | – | 14.2 (≈ 0.0471 µM) | – | 1.28 (≈ 0.00426 µM) | – | – | – | – | – | O=C1c2cc(Cl)ccc2-n2c1nc1cc(F)ccc1c2=O [Example 45] | –
23 | 1.8 (≈ 0.00649 µM) | 7.19 (≈ 0.0259 µM) | 25.7 (≈ 0.0927 µM) | 12.9 (≈ 0.0464 µM) | 3.11 (≈ 0.0112 µM) | 15.1 (≈ 0.0546 µM) | – | – | – | – | CCc1ccc2c(c1)C(=O)c1nc3ccncc3c(=O)n1-2 [Example 83] | –
24 | 3.51 (≈ 0.0086 µM) | – | 4.44 (≈ 0.0109 µM) | 0.696 (≈ 0.0017 µM) | 4.92 (≈ 0.012 µM) | – | – | – | – | – | O=C1c2cc(OC(F)(F)F)ccc2-n2c1nc1cc(SCCO)ccc1c2=O [Example 87] | –
25 | 2.33 (≈ 0.00869 µM) | 15.3 (≈ 0.0572 µM) | – | 29.8 (≈ 0.111 µM) | 4.07 (≈ 0.0152 µM) | 18.9 (≈ 0.0704 µM) | – | – | – | – | O=C1c2cc(F)ccc2N2C(=O)c3ccccc3NC12 (stereo not shown) [Example 4] | –

From patent US8012987B2, “Indolo[2,1-b] quinazole-6,12-dione antimalarial compounds and methods of treating malaria therewith” (The United States of America as represented by the …, priority 1998, dated 2011)
